One series concerns the target T1, Src (Homo sapiens, UniProt P12931).
T1 construct: purchased Merck-Millipore
The series can be described thus: Src enzymatic assay (ADP-Glo kinase assay). It is filed as biochemical. The protocol: (§1) Src, Fyn, and Abl were purchased from Merck-Millipore. Reactions were performed according to the manufacturer’s instructions with minor modifications. All substrates were used at least at twice the concentration of apparent Km. In detail: Src reactions were performed using 500 μM Src-peptide (KVEKIGEGTYGVVYK), 100 μM ATP, and 0.00087% NP-40; Fyn reactions were performed using 360 μM Src-peptide (KVEKIGEGTYGVVYK), 200 μM ATP, and 0.0026% NP-40; Abl reactions were performed using 50 μM abltide (EAIYAAPFAKKK), 30 μM ATP, and 0.00087% NP-40. All reactions were performed using 10–50 ng of enzyme and 10% DMSO in 10 μL of kinase buffer (8 mM MOPS-NaOH pH7.0, 0.2 mM EDTA, 10 mM MgAc) at 30 °C for 10 min.
(§2) To avoid peptide adsorbing to the plastic surface, protein low-binding tubes were used. ADP-Glo kinase assay (Promega) was then used to detect kinase activity according to the manufacturer’s instructions with minor modifications. In detail, reactions were transferred to white 384 well-plates and stopped by adding 10 µL of ADP-Glo reagent (Promega) for 50 min at room temperature. A total of 20 μL of detection reagent (Promega) was then added for 30 min and the reaction read using a GloMax Discover microplate reader (Promega). Data were plotted using GraphPad Prism 5.0. IC50 values were obtained according to Equation (1):v = V/{1 + (I/IC50)} (1) where v is the measured reaction velocity, V is the apparent maximal velocity in the absence of inhibitor, I is the inhibitor concentration, and IC50 is the 50% inhibitory dose. Compounds tested were assumed to act as fully ATP-competitive inhibitors. Therefore, Ki values were calculated according to Equation (2):Ki = IC50/(1+ […]) (2) where Ki is the affinity of the inhibitor to the enzyme, S is the ATP concentration, and Km is the affinity of ATP calculated according to the Michaelis–Menten equation.
(ADP-Glo turns the ADP formed in a reaction into a luminescent signal.)

For a further series, the target named is T2, Abl (Homo sapiens, UniProt P00519).
T2 construct: purchased Merck-Millipore
T2 sequence (P00519 whole entry, species assumed): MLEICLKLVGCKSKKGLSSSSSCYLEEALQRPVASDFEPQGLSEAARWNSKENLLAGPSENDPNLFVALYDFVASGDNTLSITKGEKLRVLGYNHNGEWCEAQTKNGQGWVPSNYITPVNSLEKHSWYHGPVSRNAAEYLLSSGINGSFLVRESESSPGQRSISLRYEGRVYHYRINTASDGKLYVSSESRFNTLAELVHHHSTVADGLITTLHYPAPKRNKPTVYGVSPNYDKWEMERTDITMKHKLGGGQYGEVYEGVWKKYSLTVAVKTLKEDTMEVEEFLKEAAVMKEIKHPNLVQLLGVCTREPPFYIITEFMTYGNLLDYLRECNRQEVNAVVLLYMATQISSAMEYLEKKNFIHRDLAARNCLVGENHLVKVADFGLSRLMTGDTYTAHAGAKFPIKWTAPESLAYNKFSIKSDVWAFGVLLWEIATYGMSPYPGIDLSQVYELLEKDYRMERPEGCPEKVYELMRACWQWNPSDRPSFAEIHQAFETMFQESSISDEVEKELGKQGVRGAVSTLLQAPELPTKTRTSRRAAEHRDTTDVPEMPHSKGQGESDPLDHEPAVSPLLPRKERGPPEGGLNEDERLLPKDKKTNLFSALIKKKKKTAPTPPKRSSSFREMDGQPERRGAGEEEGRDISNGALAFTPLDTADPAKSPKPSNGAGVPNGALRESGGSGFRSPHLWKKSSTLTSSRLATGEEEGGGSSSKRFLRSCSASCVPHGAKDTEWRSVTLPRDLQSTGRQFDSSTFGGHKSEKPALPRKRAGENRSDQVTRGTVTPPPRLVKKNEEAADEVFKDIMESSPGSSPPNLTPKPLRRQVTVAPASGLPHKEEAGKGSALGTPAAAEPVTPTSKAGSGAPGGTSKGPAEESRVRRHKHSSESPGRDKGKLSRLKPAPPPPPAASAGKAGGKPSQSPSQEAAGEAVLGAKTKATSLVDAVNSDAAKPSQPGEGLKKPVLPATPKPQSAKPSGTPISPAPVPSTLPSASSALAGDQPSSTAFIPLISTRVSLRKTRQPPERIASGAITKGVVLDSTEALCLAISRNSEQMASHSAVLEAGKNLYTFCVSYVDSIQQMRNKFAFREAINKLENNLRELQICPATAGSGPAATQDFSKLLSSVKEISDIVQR
Put plainly: Abl enzymatic assay (ADP-Glo kinase assay). Format: biochemical. The method, then:
as §1, §2

The target in another series is T3, Fyn (Homo sapiens, UniProt P06241).
T3 construct: purchased Merck-Millipore
T3 sequence (P06241 whole entry, species assumed): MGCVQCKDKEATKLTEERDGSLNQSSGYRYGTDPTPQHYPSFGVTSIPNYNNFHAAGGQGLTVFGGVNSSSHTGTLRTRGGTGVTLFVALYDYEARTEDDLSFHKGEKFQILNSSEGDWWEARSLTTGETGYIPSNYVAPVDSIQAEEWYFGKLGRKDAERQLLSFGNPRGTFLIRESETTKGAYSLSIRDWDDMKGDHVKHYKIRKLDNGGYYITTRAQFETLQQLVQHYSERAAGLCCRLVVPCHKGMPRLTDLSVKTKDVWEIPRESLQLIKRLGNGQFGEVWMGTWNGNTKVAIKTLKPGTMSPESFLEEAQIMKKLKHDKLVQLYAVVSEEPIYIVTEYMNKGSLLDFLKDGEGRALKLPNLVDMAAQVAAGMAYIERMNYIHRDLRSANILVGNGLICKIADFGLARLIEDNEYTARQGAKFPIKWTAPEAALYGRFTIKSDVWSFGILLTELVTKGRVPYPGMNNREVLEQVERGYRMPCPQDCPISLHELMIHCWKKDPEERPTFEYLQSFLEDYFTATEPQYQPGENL
Put plainly: Fyn enzymatic assay (ADP-Glo kinase assay). It is filed as biochemical. The conditions noted are these: for Ki: mean of at least three experiments, 200 μM ATP. The method, then: as §1, §2

16 molecules from publication PMC10384936, “Identification and Biological Characterization of the Pyrazolo[3,4-d]pyrimidine Derivative SI388 Active as Src Inhibitor” (Pharmaceuticals, 2023) can be followed below.

One may read the inhibition as the drop in the measured response relative to a control, in per cent. The low end stands for a weak effect, the high end for a strong effect. The melting point is the temperature, or range, at which the solid turns liquid. Broadly, the Ki is a dissociation constant, usually derived from enzyme kinetics or from competition with a known ligand.

T1 sequence (P12931 whole entry, species assumed): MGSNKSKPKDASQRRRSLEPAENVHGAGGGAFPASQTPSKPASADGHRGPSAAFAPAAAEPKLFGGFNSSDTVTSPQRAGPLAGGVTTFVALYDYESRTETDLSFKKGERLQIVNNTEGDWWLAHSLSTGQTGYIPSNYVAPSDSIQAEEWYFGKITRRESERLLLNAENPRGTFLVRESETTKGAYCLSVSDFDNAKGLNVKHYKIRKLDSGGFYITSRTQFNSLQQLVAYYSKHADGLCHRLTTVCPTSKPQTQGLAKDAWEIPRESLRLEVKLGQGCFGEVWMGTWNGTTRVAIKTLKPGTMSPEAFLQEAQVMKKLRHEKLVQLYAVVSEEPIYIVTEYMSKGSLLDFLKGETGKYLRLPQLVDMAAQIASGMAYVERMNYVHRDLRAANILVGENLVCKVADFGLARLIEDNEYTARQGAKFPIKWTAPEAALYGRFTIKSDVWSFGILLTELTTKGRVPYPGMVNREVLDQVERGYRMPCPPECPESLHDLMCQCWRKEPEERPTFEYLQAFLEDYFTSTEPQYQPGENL

Consider `CSc1nc(Nc2ccc(Cl)cc2)c2cnn(CC(Cl)c3ccccc3)c2n1` (stereo not drawn) [2b, 1-(2-Chloro-2-phenylethyl)-N-(4-chlorophenyl)-6-(methylthio)-1H-pyrazolo[3,4-d]pyrimidin-4-amine], for which, at Src, the “Activity towards Src in cell-free assay (in words)” value is “inactive” and testing at 1 µM gave an inhibition of 24%. At Abl, the “Activity towards Bcr-Abl in cell-free assay (in words)” value was “inactive” and the inhibition at 10 µM turned out to be 23%.

Regarding `CCSc1nc(Nc2ccccc2)c2cnn(CC(Cl)c3ccccc3)c2n1` (stereo not drawn) [2c, 1-(2-Chloro-2-phenylethyl)-6-(ethylthio)-N-phenyl-1H-pyrazolo[3,4-d]pyrimidin-4-amine], the melting point was 128 to 131 °C. Further, on Src, the inhibition at 1 µM stood at 16% and the inhibition at 10 µM is 27%. At Fyn, this molecule showed an inhibition at 1 µM of 33% and an inhibition at 10 µM of 64%. At Abl, this molecule came in with an inhibition at 1 µM of 18% and an inhibition at 10 µM of 35%.

Regarding `CC(C)Sc1nc(Nc2cccc(Cl)c2)c2cnn(CC(Cl)c3ccccc3)c2n1` (stereo not drawn) [2d, 1-(2-Chloro-2-phenylethyl)-N-(3-chlorophenyl)-6-(isopropylthio)-1H-pyrazolo[3,4-d]pyrimidin-4-amine], the inhibition at 10 µM was 34% against Src, 8% at Fyn and 24% against Abl. Moreover, the inhibition at 100 µM came out at 99.5% against Src and 26% at Fyn.

Consider `Clc1ccccc1Nc1nc(SCCN2CCOCC2)nc2c1cnn2CC(Cl)c1ccccc1` (stereo not drawn) [2e, 1-(2-Chloro-2-phenylethyl)-N-(2-chlorophenyl)-6-((2-morpholinoethyl)thio)-1H-pyrazolo[3,4-d]pyrimidin-4-amine], for which the melting point was in the range of 117 to 118 °C. 10 µM produced 26.3% inhibition against Abl.

`Cl.Oc1cc(Nc2nc(SCCN3CCOCC3)nc3c2cnn3CC(Cl)c2ccccc2)ccc1F` (stereo not drawn) [2f, 5-({1-(2-Chloro-2-phenylethyl)-6-[(2-morpholinoethyl)thio]-1H-pyrazolo[3,4-d]pyrimidin-4-yl)amino)-2-fluorophenol hydrochloride] had a melting point of 238 to 239 °C. On Src, this molecule gave an inhibition at 10 µM of 79%. Further, on Abl, at 1 µM the inhibition was 3% and the inhibition at 10 µM was 67%.

Take `Oc1cc(Nc2nc(SCCN3CCOCC3)nc3c2cnn3CC(Cl)c2ccccc2)c(F)cc1F` (stereo not drawn) [2g, 5-((1-(2-Chloro-2-phenylethyl)-6-((2-morpholinoethyl)thio)-1H-pyrazolo[3,4-d]pyrimidin-4-yl)amino)-2,4-difluorophenol]: the melting point is 146 to 149 °C. At Src, this molecule showed an inhibition at 1 µM of 43.3% and an inhibition at 10 µM of 93.6%. Moreover, on Abl, the inhibition at 1 µM was 33.5% and 10 µM produced 83% inhibition.

The molecule `CCc1nc(Nc2ccccc2)c2cnn(CC(Cl)c3ccccc3)c2n1` (stereo not drawn) [2h, 1-(2-Chloro-2-phenylethyl)-6-ethyl-N-phenyl-1H-pyrazolo[3,4-d]pyrimidin-4-amine] displayed a melting point of 174 to 176 °C. Moreover, on Src, at 10 µM the inhibition was 12% and the inhibition at 100 µM came to 98.3%. At Fyn, this molecule registered an inhibition at 10 µM of 57%, an inhibition at 100 µM of 82% and a Ki of 10.3 ± 3.13 µM. Further, on Abl, testing at 1 µM gave an inhibition of 34%.

`Clc1cccc(Nc2nc(C3CCCC3)nc3c2cnn3CC(Cl)c2ccccc2)c1` (stereo not drawn) [2i, 1-(2-Chloro-2-phenylethyl)-N-(3-chlorophenyl)-6-cyclopentyl-1H-pyrazolo[3,4-d]pyrimidin-4-amine] registered a melting point of 189 to 190 °C. In addition, at Src, the inhibition at 10 µM came out at 56% and testing at 100 µM gave an inhibition of 98.8%. For the same molecule, at Fyn, the inhibition at 10 µM was determined as 15% and 100 µM produced 19% inhibition.

Turning to `ClC(Cn1ncc2c(Nc3ccccc3)nc(C3CCCCC3)nc21)c1ccccc1` (stereo not drawn) [2j, 1-(2-Chloro-2-phenylethyl)-6-cyclohexyl-N-phenyl-1H-pyrazolo[3,4-d]pyrimidin-4-amine], the melting point is 134 to 136 °C. Besides, on Src, the inhibition at 10 µM was determined as 5% and the inhibition at 100 µM was determined as 95.3%. At Fyn, the inhibition at 10 µM worked out at 13% and the inhibition at 100 µM turned out to be 38%. Further, at Abl, the inhibition at 1 µM worked out at 39%.

As for `FC(F)(F)c1nc(Nc2ccccc2)c2cnn(CC(Cl)c3ccccc3)c2n1` (stereo not drawn) [2k, 1-(2-Chloro-2-phenylethyl)-N-phenyl-6-(trifluoromethyl)-1H-pyrazolo[3,4-d]pyrimidin-4-amine], the melting point lay in the range of 139 to 141 °C. At Src, this molecule registered an inhibition at 10 µM of 50.3% and an inhibition at 100 µM of 99.2%. On Fyn, this molecule had an inhibition at 10 µM of 47%, an inhibition at 100 µM of 66% and a Ki of 3.79 ± 1.01 µM. This molecule also returned an inhibition at 10 µM against Abl of 39%.

As for `Fc1cccc(Nc2nc(C(F)(F)F)nc3c2cnn3CC(Cl)c2ccccc2)c1` (stereo not drawn) [2l, 1-(2-Chloro-2-phenylethyl)-N-(3-fluorophenyl)-6-(trifluoromethyl)-1H-pyrazolo[3,4-d]pyrimidin-4-amine], the melting point is 164 to 166 °C. At Fyn, this molecule returned an inhibition at 1 µM of 19% and an inhibition at 10 µM of 10%. This molecule also came in with an inhibition at 1 µM on Abl of 40%.

Regarding `FC(F)(F)c1nc(Nc2cccc(Cl)c2)c2cnn(CC(Cl)c3ccccc3)c2n1` (stereo not drawn) [2m, N-(3-Chlorophenyl)-1-(2-chloro-2-phenylethyl)-6-trifluoromethyl-1H-pyrazolo[3,4-d]pyrimidin-4-amine], the melting point lay within 88 to 90 °C. Also, at 10 µM the inhibition against Src was 67%. Moreover, at Fyn, 1 µM produced 2.5% inhibition and the inhibition at 10 µM is 20%. Besides, on Abl, the inhibition at 1 µM stood at 15% and the inhibition at 10 µM stood at 18%.

As for `ClC(Cn1ncc2c(Nc3ccccc3)nc(-c3ccccc3)nc21)c1ccccc1` (stereo not drawn) [2n, 1-(2-Chloro-2-phenylethyl)-N,6-diphenyl-1H-pyrazolo[3,4-d]pyrimidin-4-amine], the melting point is 130 to 140 °C (dec.). In addition, at Src, the inhibition at 1 µM came out at 11% and 10 µM produced 13% inhibition. On Fyn, this molecule gave an inhibition at 1 µM of 16% and an inhibition at 10 µM of 23%. At Abl, this molecule returned an inhibition at 1 µM of 5% and an inhibition at 10 µM of 18%.

In the case of `Clc1cccc(Nc2nc(-c3ccccc3)nc3c2cnn3CC(Cl)c2ccccc2)c1` (stereo not drawn) [2o, 1-(2-Chloro-2-phenylethyl)-N-(3-chlorophenyl)-6-phenyl-1H-pyrazolo[3,4-d]pyrimidin-4-amine], the melting point was in the range of 82 to 84 °C. Moreover, at 10 µM the inhibition against Fyn was 8%.

`CCc1nc(Nc2ccccc2)c2cnn(CC(Cl)c3ccc(Cl)cc3)c2n1` (stereo not drawn) [2r, 1-(2-Chloro-2-(4-chlorophenyl)ethyl)-6-ethyl-N-phenyl-1H-pyrazolo[3,4-d]pyrimidin-4-amine]: the melting point fell in the range of 193 to 195 °C. In addition, the inhibition at 10 µM on Src turned out to be 7.5%. On Fyn, this molecule returned an inhibition at 1 µM of 48%, an inhibition at 10 µM of 75% and an inhibitory constant (Ki) of 1.74 ± 0.71 µM.

Turning to `CCCc1nc(Nc2ccccc2)c2cnn(CC(Cl)c3ccc(Cl)cc3)c2n1` (stereo not drawn) [2s, 1-(2-Chloro-2-(4-chlorophenyl)ethyl)-N-phenyl-6-propyl-1H-pyrazolo[3,4-d]pyrimidin-4-amine], the melting point lay in the range of 154 to 156 °C. This molecule also registered a Ki on Fyn of 10.2 ± 2.11 µM.
